The values below come from patent publication US5776935A, “Pyrido-phtalazin diones and their use against neurological disorders associated with excitotoxicity and malfunctioning of glutamatergic neurotransmission” (Merz & Co. GmbH & Co., priority 1996, dated 1998).

What is called IC50 is the concentration at which inhibition is half-maximal.

Where a name gives a salt, the structure may show the parent alone. Read-outs that look alike come from different tables or passages of the source.

Test [1] addresses T1, NMDA receptor (Rattus norvegicus, UniProt P35439).
T1 construct: endogenous in cells
Nature of the test: Patch clamp, inward currents to NMDA in cultured superior colliculus neurones. The test is classed as cell-based. As to conditions: NMDA 200 μM, glycine 1 μM. As for the experimental part:
Cells were mechanically dissociated in 0.05% DNAase / 0.3% ovomucoid (Sigma) following a 15 minute pre-incubation with 0.66% trypsin / 0.1% DNAase (Sigma). The dissociated cells were then centrifuged at 18G for 10 minutes, resuspended in minimum essential medium (Gibco) and plated at a density of 200,000 cells cm onto poly-L-lysine (Sigma)-precoated plastic petri dishes (Falcon). The cells were nourished with NaHCO3 /HEPES-buffered minimum essential medium supplemented with 5% foetal calf serum and 5% horse serum (Gibco) and incubated at 37° C. with 5%CO2 at 95% humidity. The medium was exchanged completely following inhibition of further glial mitosis with cytosine-β-D-arabinofuranoside (20 μM Sigma) after about 7 days in vitro. Thereafter the medium was exchanged partially twice weekly. […] Moreover, the relatively small neurones (soma 15-20 μm .phi.) are ideally suited to minimise problems of buffered diffusion for concentration clamp experiments.
Patch clamp recordings were made from these neurones with polished glass electrodes (4-6 m.OMEGA.) in the whole cell mode at room temperature (20°-22° C.) with the aid of an EPC-7 amplifier (List). Test substances were applied by switching channels of a custom made fast superfusion system with a common outflow (10-20 ms exchange times). The contents of the intracellular solution were as follows (mM): CsCl (120), TEACl (20), EGTA (10), MgCl2 (1), CaCl2 (0.2), glucose (10), ATP (2), cAMP (0.25); pH was adjusted to 7.3 with CsOH or HCl. The extracellular solutions had the following basic composition (mM): NaCl (140), KCl (3), CaCl2 (0.2), glucose (10), HEPES (10), sucrose (4.5), tetrodotoxin (TTX 3*10-4). For most experiments glycine (1 μM) was present in all solutions. Experiments to test the glycine-dependence of the tricyclic "pyrido-phtalazin diones" were performed in the continuous presence of increasing concentrations of glycine (1-10 μM).
This effect was mediated at the glycineB site as evidenced by the parallel shift in the concentration-response curves in the presence of increasing glycine concentrations. Thus the Kbs of Mrz 2/502 as assessed according to the Cheng-Prusoff relationship were similar in glycine 1, 3 and 10 μM (80, 124 and 118 nM respectively). […] Choline derivatives had similar potencies to the free acids in vitro (Table14b).
On the technique in general: In patch-clamp work, channel activity is measured electrically.

Test [2] has as its target T2, NMDA receptor (Mus musculus, UniProt P35438).
T2 construct: from tissue; host or cells: living mice (albino Swiss males for NMDA and PTZ tests, NMR females for MES)
Briefly: Maximal electroshock (MES)-induced tonic convulsions. The test is classed as in vivo. As to conditions: i.p., 15 min before induction; for ED50: mouse, ip, 0.25 h, read-out: MES ID50. As for the experimental part: (§1) To assess NMDA receptor antagonistic properties of the tested agents by assessing anticonvulsive effects. Additionally the role of organic acid transporters in the elimination from the brain of tested agents was assessed by using an inhibitor, Probenicid, on the duration of anticonvulsive activity.
(§2) Male albino Swiss mice (19-21 g) housed 10-15 per cage were used for the NMDA lethality test (Leander et al., 1988). For pentylenetetrazol (PTZ)-induced convulsions male albino Swiss mice (25-34 g.) housed 40 per cage (58×38×20 cm) were used while in the maximal electroshock (MES) and motor impairment tests NMR female mice (18-28 g) housed 5 per cage were employed. All animals were kept with water and food ad libittum under a 12-h light-dark cycle (light on at 6 a.m.), and at a controlled temperature (20°±0.5° C.). All experiments were performed between 10 a.m. and 5 p.m. Tested agents were injected 15 min. i.p before the induction of convulsions if not stated otherwise (see below). Mrz 2/502 was dissolved in saline added with NaOH. Most other agents were dissolved in the following solution: 0.606 g Tris; 5.0 g. glucose; 0.5 g. Tween 80; and 95 ml water. The choline and tetramethylammonium salts were dissolved in distilled water.
MES (100 Hz, 0.5 sec shock duration, 50 mA shock intensity, 0.9 ms impulse duration, Ugo Basile) was applied through corneal electrodes. The presence of tonic convulsions was scored (tonic extension of hind paws with minimum angle to the body of 90°). In an additional experiment mice were injected with Probenicid (200 mg/kg) 30 min before administration of the tested agents to assess the role of organic acid transport in elimination (duration of action). The aim was to obtain ED50 s for all parameters scored using the Litchfield Wilcoxon (1949) test for quantal dose responses.
(In general: Protection in the maximal electroshock model is a classic sign of anticonvulsant action.)

The target in test [3] is T2, NMDA receptor. Briefly: NMDA-induced convulsions / lethality test. It is filed as in vivo. The settings on record: ip, 0.25 h, i.p., 15 min before induction, read-out: NMDA ID50. As for the experimental part: as §1, §2
In the NMDA-induced convulsions test in mice, a dose-response relationship for NMDA was first performed to determine the ED97 dose which was then used for testing of antagonistic properties. After injection of the ED97 dose of NMDA the animals were placed in a small cage (20×28×14 cm) and observed for 20 min. Death preceded by clonic convulsions and by tonic seizures was the pharmacological end-point.

In test [4] the target is T2, NMDA receptor. Briefly: Pentylenetetrazol (PTZ)-induced convulsions. The test is classed as in vivo. As to conditions: ip, 0.25 h, i.p., PTZ 90 mg/kg i.p., read-out: PTZ ID50. As for the experimental part:
as §1, §2
Pentylenetetrazol was injected at a dose of 90 mg/kg (i.p). The presence of general tonic convulsions was then scored for 30 min as this parameter is more sensitive to NMDA receptor antagonists than clonic convulsions. The pharmacological end-point was taken as the presence of tonus in the hind limbs with stretching.

Test [5] deals with T3, glycineB site of the NMDA receptor (rat cortical membranes) (Rattus norvegicus, UniProt P35439).
T3 construct: The cortex was dissected and homogenised in 20 volumes of ice-cold 0.32M sucrose; from tissue; host or cells: brain cortex membranes of male Sprague-Dawley rats
Briefly: [3H]5,7-DCKA binding assay. As to conditions: 10 nM [3H]5,7-DCKA. Here is the method: Tissue preparation was performed according to Foster and Wong (1987). Male Sprague-Dawley rats (200-250g) were decapitated and their brains were removed rapidly. The cortex was dissected and homogenised in 20 volumes of ice-cold 0.32M sucrose using a glass-Teflon homogenizer. The homogenate was centrifuged at 1000×g for 10 min. The pellet was discarded and the supernatant centrifuged at 20,000×g for 20 min. The resulting pellet was resuspended in 20 volumes of distilled water and centrifuged for 20 min at 8000×g. Then the supernatant and the buffy coat were centrifuged three times (48,000× g for 20 min) in the presence of 5 mM Tris-HCl, pH 7.4. All centrifugation steps were carried out at 4° C. After resuspension in 5 volumes of 5 mM Tris-HCl, pH 7.4 the membrane suspension was frozen rapidly at -80° C. until the day of assay. On the day of assay the membranes were thawed and washed four times by resuspension in 5 mM Tris-HCl, pH 7.4 and centrifugation at 48,000× g for 20 min. The final pellet was suspended in assay buffer.
The amount of protein in the final membrane preparation was determined according to the method of Lowry (1951) with some modifications (Hartfree, 1972). 50 μl of Protein samples (in triplicates) were diluted to 1 ml with distilled water and treated with 0.9 ml of a solution containing 2 g potassium sodium tartrate and 10 g Na2 CO3 in 500 ml 1N NaOH and 500ml water. Blank and standard (with bovine serum albumin) were set up in the same way. The tubes were placed in a water bath at 50° C. for 10 min. and cooled at room temperature. 100 μl of a solution containing 2 g potassium sodium tartrate and 1 g CuSO4 x 5 H2 O in 90 ml water and 10 ml 1N NaOH were added. The samples were left at room temperature for at least 10 min., then 3 ml of Folin-Ciocalteu reagent (1 ml of reagent diluted with 15 ml water) was added rapidly during mixing. The tubes were again heated at 50° C. for 10 min. and cooled to room temperature. Absorbencies were then read in 1 cm cuvets at 650 nm. The final protein concentration used for our studies was between 100 and 250 μg/ml.
Incubation in both binding assays was terminated using a Millipore filter system. The samples, all in triplicate, were rinsed three times with 2.5 ml ice cold assay buffer over glass fibre filters obtained from Schleicher & Schuell under a constant vacuum. Following separation and rinse the filters were placed into scintillation liquid (5 ml; Ultima Gold) and radioactivity retained on the filters was determined by using conventional liquid scintillation counter (Hewlett Packard, Liquid Scintillation Analyser). `Total binding` was the absolute amount of radioligand bound in the absence of any additives whereas `non-specific` binding was determined in the presence of a high concentration of competitor.
[^3 H]5,7-DCKA binding assay
Experiments were performed according to the methods modified from previous groups (Canton et al., 1991; Yoneda et al., 1993). Membranes were suspended and incubated in 10 mM Tris-HCl, pH 7.4. Incubation time was 45 min at 4° C. Non-specific binding of [^3 H]5,7-DCKA was defined by the addition of unlabeled glycine at 0.1 mM. The stop-solution contained 10 mM Tris-HCl and 10 mM magnesium sulphate, pH 7.4. Filtration was performed as rapidly as possible. Displacement experiments were performed with a fixed [^3 H]5,7-DCKA concentration of 10 nM. Test compounds were diluted in water or DMSO and added in at least 5 different concentrations.

The target of test [6] is T1, NMDA receptor. Nature of the test: Microelectrophoretic application of NMDA to spinal neurones in vivo. As to conditions: responses of single rat spinal neurones; for Microelectrophoretic NMDA ID50: i.v.; for ED50: rat, iv, read-out: Microelectrophoretic NMDA ID50. Here is the method: (§3) The ability of these glycineB antagonists to act as NMDA receptor antagonists in vivo was assessed using i.v. administration against responses of single neurones in the rat spinal cord to microelectrophoretic application of AMPA and NMDA.

Test [7] relates to AMPA. Nature of the test: Microelectrophoretic application of AMPA to spinal neurones in vivo. As to conditions: i.v., responses of single rat spinal neurones. As for the experimental part:
as §3

[8] abbreviates: peak currents, read-out: Peak NMDA IC50.
Where [9] appears, read: plateau (steady-state) currents, read-out: Plateau NMDA IC50.

As to `O=c1[nH][nH]c(=O)c2nc3ccccc3cc12` [Mrz 2/585], the IC50 is 65900 nM in test [1] (setting [8]) and 19100 nM in test [1] (setting [9]). In addition, the ED50 in test [2] was > 100 mg/kg; in test [3], 58.9 mg/kg; in test [4] it was 59 mg/kg.

With `O=c1[nH]nc(O)c2c1cc1cc(Cl)ccc1[n+]2[O-]` [Mrz 2/576, 8-chloro-4-hydroxy-1-oxo-1,2-dihydropyridazino[4,5-b]-quinoline 5-oxide choline salt], the IC50 is 450 nM in test [5], 1100 nM in test [1] (setting [8]) and 500 nM in test [1] (setting [9]). Also, the “MES ID50” value in test [2] (listed as 576, 15 min) is listed as 7.7 mg/kg. For the same molecule, in test [6] (listed as 576), the “Microelectrophoretic NMDA ID50” value is 2.8 mg/kg. Moreover, the “Microelectrophoretic AMPA ID50” value in test [7] (listed as 576) is listed as > 16.0 mg/kg.

As to `O=c1[nH][nH]c(=O)c2nc3cc(Br)c(Cl)cc3cc12` [Mrz 2/538], the IC50 in test [1] (setting [8]) was 93900 nM; in test [1] (setting [9]), 2500 nM. In addition, the ED50 in test [2] is > 60 mg/kg; in test [3] it was 106 mg/kg; in test [4], > 100 mg/kg.

For the molecule `O=c1[nH][nH]c(=O)c2nc3cc(Cl)c(Br)cc3cc12` [Mrz 2/539], the results for the IC50 in test [1] (setting [8]) and in test [1] (setting [9]) were 5300 nM and 700 nM, respectively. Also, the ED50 in test [2] was > 60 mg/kg; in test [3] it was > 100 mg/kg; in test [4], > 100 mg/kg.

Take `O=c1[nH]nc(O)c2c1cc1cc(Cl)c(Cl)cc1[n+]2[O-]` [Mrz 2/518, 7,8-dichloro-4-hydroxy-1-oxo-1,2-dihydropyridazino-[4,5-b]-quinoline 5-oxide]: the figures for the IC50 in test [5], in test [1] (setting [8]) and in test [1] (setting [9]) were 650 nM, 3800 nM and 800 nM, respectively. Further, the ED50 in test [2] is > 60 mg/kg; in test [3], > 100 mg/kg.

Consider `O=c1[nH][nH]c(=O)c2nc3ccc(F)cc3cc12` [Mrz 2/572], for which the IC50 in test [5] stood at 1140 nM; in test [1] (setting [8]), 12400 nM; in test [1] (setting [9]), 3500 nM. In test [2] (listed as 572, 15 min), the “MES ID50” value is given as > 100 mg/kg. Besides, the ED50 in test [6] is > 16 mg/kg. Also, the “Microelectrophoretic AMPA ID50” value in test [7] is given as > 16.0 mg/kg.

In the case of `O=c1[nH]nc(O)c2c1cc1cc(F)ccc1[n+]2[O-]` [Mrz 2/571, 8-fluoro-4-hydroxy-1-oxo-1,2-dihydropyridazino[4,5-b]-quinoline 5-oxide choline salt], the IC50 was found to be 320 nM in test [5], 4900 nM in test [1] (setting [8]) and 1000 nM in test [1] (setting [9]). The “MES ID50” value in test [2] (listed as 571, 15 min) was 15.5 mg/kg. Also, the “Microelectrophoretic NMDA ID50” value in test [6] (listed as 571) was 4.7 mg/kg. Further, the “Microelectrophoretic AMPA ID50” value in test [7] (listed as 571) worked out at 9.2 mg/kg.

For `O=c1[nH][nH]c(=O)c2nc3ccc(Cl)cc3cc12` [Mrz 2/569], the IC50 in test [5] amounted to 970 nM; in test [1] (setting [8]) it was 2000 nM; in test [1] (setting [9]), 500 nM. The “MES ID50” value in test [2] (listed as 569, 15 min) is given as > 50 mg/kg. In addition, in test [6], the ED50 was > 16 mg/kg. Moreover, the “Microelectrophoretic AMPA ID50” value in test [7] is given as > 16.0 mg/kg.
